From paper PMC6985936, “2-Amino-2,3-dihydro-1H-indene-5-carboxamide-Based Discoidin Domain Receptor 1 (DDR1) Inhibitors: Design, Synthesis, and in Vivo Antipancreatic Cancer Efficacy” (Journal of Medicinal Chemistry, 2019)
Like-named read-outs stand apart in the source and are kept apart here.

How the values were obtained:
[1] = SD rats
Method: (§1) All animal studies were performed according to the protocols and guidelines of the institutional care and use committee. The 4–6 week old male Sprague-Dawley rats were purchased from the Shanghai Laboratory Animal Research Center (Shanghai, China). All of the procedures related to animal handling, care, and treatment in this article were performed in compliance with Agreement of the Ethics Committee on Laboratory Animal Care and the Guidelines for the Care and Use of Laboratory Animals in Shanghai, China. […] The compound was dissolved in the solution containing 2% DMSO, 4% ethanol, 4% castor oil, and 90% ddH2O. Pharmacokinetic properties of SD rats (male) were determined following intravenous (iv) and oral administration. Animals were randomly distributed into two experimental groups (n = 3). The oral groups were given 25 mg/kg by gastric gavage. The other group was dosed by injection into the tail vein (5 mg/kg). […] Whole blood samples were collected in heparinized tubes. The plasma fraction was immediately separated by centrifugation (8000 rpm, 6 min, 4 °C) and stored at −20 °C until liquid chromatography–mass spectrometry analysis. […] The pharmacokinetics parameters were calculated by analyzing the compound concentration in plasma samples using the pharmacokinetic software DAS.2.0.

in vivo = details: male, Sprague-Dawley, rat, plasma, po, 25 mg/kg
Method: as §1

- T1/2 ([1]; iv 5 mg/kg): 0.9 h
- Tmax ([1]; iv 5 mg/kg): 0.083 h
- T1/2 ([1]; po 25 mg/kg): 1.7 h
- Tmax ([1]; po 25 mg/kg): 4.0 h
- AUC(0–∞) ([1]; po 25 mg/kg, 25 mg/kg): 80 535 μg/(L h)
- bioavailability (in vivo): 89.9%
SMILES: Cc1cn(-c2cc(NC(=O)c3ccc4c(c3)C[C@H](N(C)c3cncnc3)C4)cc(C(F)(F)F)c2)cn1 [7f, (R)-2-(Methyl(pyrimidin-5-yl)amino)-N-(3-(4-methyl-1H-imidazol-1-yl)-5-(trifluoromethyl)phenyl)-2,3-dihydro-1H-indene-5-carboxamide]
